Assay results from patent US6406908B1, “Vanilloid receptor” (Novartis AG, priority 1999, dated 2002).
Where two headings read alike, the source gives them in different places.

Experiments:
human vanilloid receptor = molecular target: T1, human vanilloid receptor (Homo sapiens, UniProt Q8NER1); assay: Activation of human vanilloid receptor expressed in mammalian cells; type: cell-based
T1 construct: expressed in transfected cells

Rat DRG neurones [1] = assay: 45Ca calcium uptake assay in primary cultures of DRG neurones; type: cell-based
Experimental: Primary cultures of adult DRG neurones are prepared according to standard protocols [Wood et al., J. Neuroscience 8:3208-3220 (1988)]. Cells are plated at a density of 2000 per well on 96 well view plates pre-coated with poly-ornithine and laminin and cultured in Hams F14 supplemented with 100 ng/ml NGF for four days. On the day of the assay, the cells are washed eight times in a Denley cell washer with calcium/magnesium free HBSS plus 10 mM HEPES, pH7.4. After washing the wells contain approximately 75 μl of buffer. […] For negative control, capsaicin is omitted. Samples are incubated at RT for 10 min, then washed four times with HBSS/10 mM HEPES pH 7.4. The remaining buffer is removed from the wells and replaced with 25 μl of 0.1% SDS. After about 10 min 200 μl of Microscint 40 scintillant is added and samples are counted on a Packard Topcount.

hVR1 [2] = molecular target: T2, hVR1 (Homo sapiens, UniProt Q8NER1); assay: Aequorin luminescence assay, hVR1 in CHO cells; type: cell-based
T2 construct: expressed in transfected cells
T2 sequence (Q8NER1 whole entry): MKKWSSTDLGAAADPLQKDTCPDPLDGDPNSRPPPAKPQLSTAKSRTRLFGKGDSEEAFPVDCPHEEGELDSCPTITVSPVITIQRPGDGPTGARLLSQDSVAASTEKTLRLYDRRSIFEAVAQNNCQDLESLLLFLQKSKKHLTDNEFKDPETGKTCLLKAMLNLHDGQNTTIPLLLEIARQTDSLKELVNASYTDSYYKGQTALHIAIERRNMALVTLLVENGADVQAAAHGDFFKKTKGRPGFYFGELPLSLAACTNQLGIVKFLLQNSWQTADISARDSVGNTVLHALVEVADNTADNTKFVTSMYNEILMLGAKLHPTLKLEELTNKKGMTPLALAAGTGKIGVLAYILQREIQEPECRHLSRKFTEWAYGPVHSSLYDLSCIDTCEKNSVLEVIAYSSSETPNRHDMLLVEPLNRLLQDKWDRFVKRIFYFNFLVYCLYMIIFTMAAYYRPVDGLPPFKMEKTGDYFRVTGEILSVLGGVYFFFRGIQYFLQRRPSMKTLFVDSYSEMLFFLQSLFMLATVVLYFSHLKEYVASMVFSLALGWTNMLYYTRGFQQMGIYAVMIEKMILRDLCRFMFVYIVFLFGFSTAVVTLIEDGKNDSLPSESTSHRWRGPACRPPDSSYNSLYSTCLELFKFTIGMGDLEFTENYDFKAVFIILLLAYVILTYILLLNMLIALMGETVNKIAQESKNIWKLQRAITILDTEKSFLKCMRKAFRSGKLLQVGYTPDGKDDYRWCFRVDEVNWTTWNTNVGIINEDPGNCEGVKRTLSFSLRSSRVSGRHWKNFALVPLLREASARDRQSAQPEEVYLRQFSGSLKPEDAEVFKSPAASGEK
Experimental: (§1) All the plates for use in a day are set up at the same time. The first plate is used in the assay after 2.5 h incubation with coelenterazine h. Subsequent plates are used at about 10 min intervals. […] At the start of the assay, the medium containing coelenterazine h is removed and replaced with 100 μl of HBSS buffered to pH 7.4 with 10 mM HEPES containing test compounds where appropriate. Cells are incubated for at least 10 min at RT. They are then placed in the measuring chamber of a luminometer (Wallac Microbeta Jet). Agonist is injected in a volume of 20 μl HBSS and the luminescence signal is collected for 20 sec.

hVR1 [3] = molecular target: T2, hVR1; assay: Fluorometric Fluo-3 assay using the FLIPR, hVR1 in CHO cells; type: cell-based
Experimental: Cells resulting from Examples A1 or A2 are plated at a density of 50,000 cells/well in Costar Viewplates. The cells are incubated at 37° C. in a humidified atmosphere (5% CO2/95% air) for 24 h. Medium is removed by flicking the plates and replaced with 100 μl HBSS containing 2 μM Fluo-3, AM (Molecular Probes) in the presence of 2.5 mM probenicid (Sigma) and 0.02% pluronic acid (Molecular Probes). The cells are incubated at 37° C. in a humidified atmosphere (5% CO2/95% air) for 1 h. Plates are flicked to remove excess of Fluo-3, AM, washed twice with HBSS and refilled with 100 μl of HBSS containing screening compounds. Incubation in the presence of screening compounds lasts between 10 and 20 min. Plates are then placed in the cell plate stage of the FLIPR (Molecular Devices, Sunnyvale, Calif., USA). A baseline consisting in 5 measurements of 0.4 sec each (laser: excitation 488 nm at 0.6 W, CCD camera opening of 0.4 sec) is recorded.

rVR1 = molecular target: T3, rVR1 (Rattus norvegicus, UniProt O35433); assay: Aequorin luminescence assay, rVR1 in CHO cells; type: cell-based
T3 construct: expressed in transfected cells
T3 sequence (O35433 whole entry): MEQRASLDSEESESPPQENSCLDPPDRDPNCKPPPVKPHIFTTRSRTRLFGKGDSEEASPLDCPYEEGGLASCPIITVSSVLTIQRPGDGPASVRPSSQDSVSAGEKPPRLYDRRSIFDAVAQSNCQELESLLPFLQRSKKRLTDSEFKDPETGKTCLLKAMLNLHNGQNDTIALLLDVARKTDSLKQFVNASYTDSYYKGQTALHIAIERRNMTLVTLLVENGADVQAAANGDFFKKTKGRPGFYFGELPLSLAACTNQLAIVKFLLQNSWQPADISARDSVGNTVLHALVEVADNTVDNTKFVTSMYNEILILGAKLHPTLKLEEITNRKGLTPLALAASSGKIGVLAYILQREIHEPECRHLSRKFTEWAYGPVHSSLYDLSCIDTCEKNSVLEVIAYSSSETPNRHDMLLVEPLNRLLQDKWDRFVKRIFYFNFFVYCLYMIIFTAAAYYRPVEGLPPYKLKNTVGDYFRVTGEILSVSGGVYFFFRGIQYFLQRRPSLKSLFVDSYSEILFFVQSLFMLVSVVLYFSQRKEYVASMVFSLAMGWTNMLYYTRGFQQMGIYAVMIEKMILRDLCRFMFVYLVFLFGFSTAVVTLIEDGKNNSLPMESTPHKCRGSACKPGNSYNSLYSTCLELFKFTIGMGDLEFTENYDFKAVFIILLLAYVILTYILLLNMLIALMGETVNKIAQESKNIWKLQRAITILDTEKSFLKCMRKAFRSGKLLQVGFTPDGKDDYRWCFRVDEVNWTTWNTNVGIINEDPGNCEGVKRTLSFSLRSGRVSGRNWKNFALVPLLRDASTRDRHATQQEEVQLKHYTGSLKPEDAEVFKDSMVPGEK
Experimental: as §1

Rat DRG neurones [4] = settings: inhibition of capsaicin response; from Wood et al (1988); read-out: IC50 (nM) (Ca uptake assay) Rat DRG neurones; cited from earlier work
[5] = inhibition of capsaicin response, capsaicin 1 μM

T1 sequence (Q8NER1 whole entry): as the sequence (Q8NER1 whole entry) above

Question: For COc1cc(CNC(=O)CCCC/C=C/C(C)C)ccc1O [Capsaicin], which “Activation of the human vanilloid receptor” value (human vanilloid receptor) is on record?
Answer: activated by capsaicin

Question: What about the EC50 (Rat DRG neurones [1]; 10 min) of the same compound?
Answer: 170 ± 19 nM

Question: For Oc1cc2c(cc1O)CN(C(=S)NCCc1ccc(Cl)cc1)CCC2 [Cz, Capsazepine], which IC50 (hVR1 [2]) is on record?
Answer: 120 ± 12 nM

Question: What about the “Block of activation by capsaicin, temperatures greater than 42° C. and pH less than 5.5” value (human vanilloid receptor) of the same compound?
Answer: blocked substantially or completely

Question: What about the IC50 (Rat DRG neurones [1]) of the same compound?
Answer: 800 ± 40 nM

Question: What about the IC50 (hVR1 [3]) of the same compound?
Answer: 130 ± 32 nM

Question: What about the IC50 (rVR1) of the same compound?
Answer: 320 ± 110 nM

Question: For N.N.N.N.N.N.N.N.N.N.N.N.N.N.[Cl-].[Cl-].[Cl-].[Cl-].[Cl-].[Cl-].[O-2].[O-2].[Ru+3].[Ru+3].[Ru+4] [Rr, Ruthenium red], which IC50 (hVR1 [2]; [5]) is on record?
Answer: 220 ± 32 nM

Question: What about the “Blocking of capsaicin responses” value (hVR1 [2]; measured as in Example B1, stated generally for the assays) of the same compound?
Answer: effective blocker of capsaicin responses

Question: What about the IC50 (rVR1; [5]) of the same compound?
Answer: 18 ± 8.3 nM

Question: What about the IC50 (Rat DRG neurones [4]) of the same compound?
Answer: 50 nM
